Assay results as given in the NIST ThermoML archive (doi:10.1007/s10765-005-5585-3).

Settings: 101.33 kPa, Liquid; for mass density: UV imaging technique; for viscosity: oscillations around equilibria

[Ir] [iridium]
Settings	mass density [kg/m3]	viscosity [mPa·s]
2300 K	19856	–
2350 K	19814	–
2373 K	–	8.47
2398 K	–	8.34
2400 K	19771	–
2423 K	–	8.21
2448 K	–	8.08
2450 K	19729	–
2473 K	–	7.97
2498 K	–	7.85
2500 K	19686	–
2523 K	–	7.74
2548 K	–	7.63
2550 K	19644	–
2573 K	–	7.53
2598 K	–	7.42
2600 K	19601	–
2623 K	–	7.33
2648 K	–	7.23
2650 K	19559	–
2673 K	–	7.14
2698 K	–	7.05
2700 K	19516	–
2723 K	–	6.97
2748 K	–	6.88
2750 K	19474	–
2773 K	–	6.8
2800 K	19431	–
2850 K	19389	–
2900 K	19346	–
2950 K	19304	–
3000 K	19261	–
